The text below walks through data of patent US20160249841A1, “[…] ELECTROENCEPHALOGRAPHIC OSCILLATIONS” (Galenea Corp., priority 2012, published 2016).

The test system of assay [1] is Coloboma mice. As to conditions: low doses; cited from earlier work.
Assay [2] relates to wild-type mice. As to the kind of experiment: EEG time-frequency maps of mean power during onset of exploratory activity, wild-type mice treated with PCP. It is filed as in vivo, mouse. As to conditions: wild-type mice treated with PCP versus untreated, FIG. 10. From the text:
Time-frequency maps were produced of mean power for untreated wild-type mice and mice treated with PCP. A signature in EEG oscillations observed in untreated mice was absent following treatment with PCP. This signature was characterized by peaks in early beta (20-30 Hz) activity, gammaLow (30-40 Hz) and gammaHi (80-100) Hz activity.

The subject of assay [3] is CNhetKO mice. As to the kind of experiment: EEG oscillations in PFC during onset of exploratory activity in novel object recognition task, CNhetKO mice. It is filed as in vivo, mouse. As to conditions: 5 mg/kg subcutaneously. From the text:
Alterations in electroencephalographic oscillations (e.g., shifts in power) recorded from the prefrontal cortex (PFC) of mice could result from engagement of executive functions necessary for attending to and actively exploring a new environment; processes unrelated to executive function may also be involved. An integrated system was set up that combined automated real-time behavioral analysis (Topscan, CleverSys, Inc., Reston, Va.) together with multichannel electrophysiology equipment (MC_Rack, MultiChannel Systems, GmbH, Reutlingen, Germany) to analyze PFC activity during different phases of a novel object recognition (NOR) task in mice that were well habituated to the test apparatus.
EEGs were recorded from control and calcineurin heterozygous knock-out (CNhetKO) subjects during performance of a novel-object recognition task. […] During each phase, the behavior of each subject was monitored in real time and synchronized to recorded EEG oscillations (Topscan, CleverSys Inc.). […]
The area under the curve was computed from spectrograms to quantify power in different frequency bands [Theta (4-12 Hz) and GammaHI (65-90 Hz)] of the EEG oscillations. […]
The effects of D4 agonist PD168077 on the EEG oscillations observed during onset of the exploratory activity in CNhetKO mice were evaluated. […] Time-frequency maps of baseline conditions (no D4 agonist) and treatment conditions were evaluated.

Assay [4] deals with CNhetKO mice. Description: Novel object recognition task performance, CNhetKO mice. The format is in vivo, mouse. The method, then:
EEGs were recorded from control and calcineurin heterozygous knock-out (CNhetKO) subjects during performance of a novel-object recognition task. Control and CNhetKO mice were exposed to two identical objects during a 10 min sample phase. After a 24 hour delay period, subjects were exposed to a familiar object and a novel object. During each phase, the behavior of each subject was monitored in real time and synchronized to recorded EEG oscillations (Topscan, CleverSys Inc.). As depicted in FIG. 4, an exploratory activity occurred when a subject's nose was orientated towards an object and was within a 2 cm radius surrounding the object for at least 200 msec, while the subject's center of mass (‘*’) was outside of 2 cm radius. […]
The effects of D4 agonist PD168077 on the EEG oscillations observed during onset of the exploratory activity in CNhetKO mice were evaluated. CNhetKO subjects were treated with PD 168077 (5 mg/kg) subcutaneously and EEG oscillations associated with exploratory activity in a novel object recognition task were analyzed. Exploratory activity in the presence of novel objects and familiar objects was analyzed for up to 90 min post-injection. Time-frequency maps of baseline conditions (no D4 agonist) and treatment conditions were evaluated.

As for `C[C@H](N)Cc1ccccc1` [D-amphetamine], the Hyperkinesis entry in assay [1] is recorded as “ameliorated”.
As to `c1ccc(C2(N3CCCCC3)CCCCC2)cc1` [PCP, Phencyclidine], the “Signature in EEG oscillations (peaks in early beta 20-30 Hz, gammaLow 30-40 Hz, gammaHi 80-100 Hz)” value in assay [2] is reported as “absent”.
For the compound `Cc1cccc(C(=O)NCN2CCN(c3ccccc3C#N)CC2)c1` [PD 168077], in assay [3] (CNhetKO mice, up to 90 min post-injection, versus baseline (no D4 agonist)), the “Signature of EEG oscillation observed during onset of the exploratory activity (time-frequency maps)” value is “restored the signature of EEG oscillation”. In assay [3] (CNhetKO subjects, analyzed up to 90 min post-injection, FIG. 6), the “Gamma responses (GammaHi 65-90 Hz EEG power) in PFC elicited by object exploration” value was “transiently restored normal Gamma responses”. Also, the “Time spent exploring novel objects versus familiar objects” value in assay [4] (CNhetKO mice, versus cyclodextrin control, FIG. 8B) is “significantly more time exploring novel objects compared with familiar objects”. The “Performance in the novel object recognition cognitive paradigm” value in assay [4] (CNhetKO subjects, 5 mg/kg s.c. 30 min prior to familiarization phase and again 30 min prior to test phase after 24 hr) is on record as “essentially completely restored performance”.
